Test results reported in ChEMBL document CHEMBL3885861, “Open TG-GATES”.

Species on record: Rattus norvegicus
Test: Open TG-GATES - Regimen: Daily Repeat
Format: toxicity, organism-based, Sprague-Dawley
Set-up: regimen Daily Repeat, gender Male, age 6 weeks
Conditions: in vivo, po, 100 mg/kg, route gavage, dose level Low; for APTT / Bas / Eos / Fbg / Hb / Ht / Lym / MCH / MCHC / MCV / Mono / Neu / PT / Plat / RBC / Ret / WBC: tissue Blood; for KIDNEY_L / KIDNEY_R / KIDNEY_TOTAL: tissue Kidney; for LIVER: tissue Liver; for A/G / ALP / ALT / AST / BUN / CRE / Ca / Cl / DBIL / GLC / IP / K / LDH / Na / PL / RALB / TBIL / TC / TG / TP / gamma-GTP: tissue Plasma

CCOC(=O)CCC(=O)O[C@H]1[C@H](O[C@@H]2[C@@H](C)[C@H](O[C@H]3C[C@@](C)(OC)[C@@H](O)[C@H](C)O3)[C@@H](C)C(=O)O[C@H](CC)[C@@](C)(O)[C@H](O)[C@@H](C)C(=O)[C@H](C)C[C@@]2(C)O)O[C@H](C)C[C@@H]1N(C)C [ERYTHROMYCIN ETHYLSUCCINATE]
TERMINAL_BW (72 h, time 3 day): 235.5 g | APTT (72 h, time 3 day): 21.4 s | Bas (72 h, time 3 day): 0% | Eos (72 h, time 3 day): 1% | Fbg (72 h, time 3 day): 324.6 mg/dL | Hb (72 h, time 3 day): 13.4 g/dL | Ht (72 h, time 3 day): 39.4% | Lym (72 h, time 3 day): 83.4% | MCH (72 h, time 3 day): 20.7 pg | MCHC (72 h, time 3 day): 33.9% | MCV (72 h, time 3 day): 61.1 fL | Mono (72 h, time 3 day): 3% | Neu (72 h, time 3 day): 11.6% | PT (72 h, time 3 day): 15.9 s | Plat (72 h, time 3 day): 120.2 x10_4/uL | RBC (72 h, time 3 day): 645.4 x10_4/ul | Ret (72 h, time 3 day): 4.9% | WBC (72 h, time 3 day): 101.8 x10_2/uL | KIDNEY_L (72 h, time 3 day): 1 g | KIDNEY_R (72 h, time 3 day): 1 g | KIDNEY_TOTAL (72 h, time 3 day): 2 g | LIVER (72 h, time 3 day): 10.5 g | A/G (72 h, time 3 day): 1.2 | ALP (72 h, time 3 day): 1729.8 IU/L | ALT (72 h, time 3 day): 44.4 IU/L | AST (72 h, time 3 day): 77.2 IU/L | BUN (72 h, time 3 day): 18 mg/dL | CRE (72 h, time 3 day): 0.1 mg/dL | Ca (72 h, time 3 day): 10.3 mg/dL | Cl (72 h, time 3 day): 107.2 meq/L | DBIL (72 h, time 3 day): 0 mg/dL | GLC (72 h, time 3 day): 187.2 mg/dL | IP (72 h, time 3 day): 7.1 mg/dL | K (72 h, time 3 day): 4.4 meq/L | LDH (72 h, time 3 day): 179.8 IU/L | Na (72 h, time 3 day): 141.4 meq/L | PL (72 h, time 3 day): 130 mg/dL | RALB (72 h, time 3 day): 3 g/dL | TBIL (72 h, time 3 day): 0.024 mg/dL | TC (72 h, time 3 day): 69.2 mg/dL | TG (72 h, time 3 day): 72.2 mg/dL | TP (72 h, time 3 day): 5.5 g/dL | gamma-GTP (72 h, time 3 day): 1.2 IU/L | TERMINAL_BW ([…], time 7 day): 255.3 g | TERMINAL_BW ([…], time 14 day): 320.9 g | TERMINAL_BW ([…], time 28 day): 401.9 g | APTT ([…], time 7 day): 21.7 s | Bas ([…], time 7 day): 0% | Eos ([…], time 7 day): 0.8% | Fbg ([…], time 7 day): 311.8 mg/dL | Hb ([…], time 7 day): 13.6 g/dL | Ht ([…], time 7 day): 40% | Lym ([…], time 7 day): 84.6% | MCH ([…], time 7 day): 20.4 pg | MCHC ([…], time 7 day): 33.9% | MCV ([…], time 7 day): 60.1 fL | Mono ([…], time 7 day): 2.2% | Neu ([…], time 7 day): 11.4% | PT ([…], time 7 day): 16.8 s | Plat ([…], time 7 day): 107.9 x10_4/uL | RBC ([…], time 7 day): 667.2 x10_4/ul | Ret ([…], time 7 day): 5.3% | WBC ([…], time 7 day): 77.9 x10_2/uL | APTT ([…], time 14 day): 20.2 s | Bas ([…], time 14 day): 0% | Eos ([…], time 14 day): 1.2% | Fbg ([…], time 14 day): 338 mg/dL | Hb ([…], time 14 day): 13.8 g/dL | Ht ([…], time 14 day): 39.8% | Lym ([…], time 14 day): 82% | MCH ([…], time 14 day): 20.6 pg | MCHC ([…], time 14 day): 34.9% | MCV ([…], time 14 day): 59.1 fL | Mono ([…], time 14 day): 2.2% | Neu ([…], time 14 day): 13.8% | PT ([…], time 14 day): 16.3 s | Plat ([…], time 14 day): 113.3 x10_4/uL | RBC ([…], time 14 day): 673.2 x10_4/ul | Ret ([…], time 14 day): 4.7% | WBC ([…], time 14 day): 110.5 x10_2/uL | APTT ([…], time 28 day): 23.6 s | Bas ([…], time 28 day): 0% | Eos ([…], time 28 day): 1.2% | Fbg ([…], time 28 day): 339 mg/dL | Hb ([…], time 28 day): 15.1 g/dL | Ht ([…], time 28 day): 43.9% | Lym ([…], time 28 day): 86% | MCH ([…], time 28 day): 19.6 pg | MCHC ([…], time 28 day): 34.5% | MCV ([…], time 28 day): 56.8 fL | Mono ([…], time 28 day): 2% | Neu ([…], time 28 day): 9.4% | PT ([…], time 28 day): 16 s | Plat ([…], time 28 day): 107.2 x10_4/uL | RBC ([…], time 28 day): 772.2 x10_4/ul | Ret ([…], time 28 day): 2.7% | WBC ([…], time 28 day): 102.2 x10_2/uL | KIDNEY_L ([…], time 7 day): 1.1 g | KIDNEY_R ([…], time 7 day): 1.1 g | KIDNEY_TOTAL ([…], time 7 day): 2.2 g | KIDNEY_L ([…], time 14 day): 1.2 g | KIDNEY_R ([…], time 14 day): 1.3 g | KIDNEY_TOTAL ([…], time 14 day): 2.5 g | KIDNEY_L ([…], time 28 day): 1.4 g | KIDNEY_R ([…], time 28 day): 1.4 g | KIDNEY_TOTAL ([…], time 28 day): 2.9 g | LIVER ([…], time 7 day): 11.1 g | LIVER ([…], time 14 day): 13.3 g | LIVER ([…], time 28 day): 16.2 g | A/G ([…], time 7 day): 1.1 | ALP ([…], time 7 day): 1592.6 IU/L | ALT ([…], time 7 day): 36.4 IU/L | AST ([…], time 7 day): 64.6 IU/L | BUN ([…], time 7 day): 18.4 mg/dL | CRE ([…], time 7 day): 0.2 mg/dL | Ca ([…], time 7 day): 10.5 mg/dL | Cl ([…], time 7 day): 108.2 meq/L | DBIL ([…], time 7 day): 0 mg/dL | GLC ([…], time 7 day): 194.2 mg/dL | IP ([…], time 7 day): 7 mg/dL | K ([…], time 7 day): 4.2 meq/L | LDH ([…], time 7 day): 129 IU/L | Na ([…], time 7 day): 141.2 meq/L | PL ([…], time 7 day): 135.8 mg/dL | RALB ([…], time 7 day): 2.9 g/dL | TBIL ([…], time 7 day): 0 mg/dL | TC ([…], time 7 day): 68.6 mg/dL | TG ([…], time 7 day): 111.4 mg/dL | TP ([…], time 7 day): 5.5 g/dL | gamma-GTP ([…], time 7 day): 1.6 IU/L | A/G ([…], time 14 day): 1.2 | ALP ([…], time 14 day): 1442.8 IU/L | ALT ([…], time 14 day): 36.8 IU/L | AST ([…], time 14 day): 66 IU/L | BUN ([…], time 14 day): 20.2 mg/dL | CRE ([…], time 14 day): 0.2 mg/dL | Ca ([…], time 14 day): 10.7 mg/dL | Cl ([…], time 14 day): 107.2 meq/L | DBIL ([…], time 14 day): 0 mg/dL | GLC ([…], time 14 day): 196.8 mg/dL | IP ([…], time 14 day): 6.8 mg/dL | K ([…], time 14 day): 4.4 meq/L | LDH ([…], time 14 day): 150 IU/L | Na ([…], time 14 day): 142.2 meq/L | PL ([…], time 14 day): 150.2 mg/dL | RALB ([…], time 14 day): 3.1 g/dL | TBIL ([…], time 14 day): 0.005 mg/dL | TC ([…], time 14 day): 79 mg/dL | TG ([…], time 14 day): 102 mg/dL | TP ([…], time 14 day): 5.7 g/dL | gamma-GTP ([…], time 14 day): 2.2 IU/L | A/G ([…], time 28 day): 1.2 | ALP ([…], time 28 day): 1003.2 IU/L | ALT ([…], time 28 day): 37.8 IU/L | AST ([…], time 28 day): 59.2 IU/L | BUN ([…], time 28 day): 19.2 mg/dL | CRE ([…], time 28 day): 0.2 mg/dL | Ca ([…], time 28 day): 10.3 mg/dL | Cl ([…], time 28 day): 106.4 meq/L | DBIL ([…], time 28 day): 0 mg/dL | GLC ([…], time 28 day): 194.4 mg/dL | IP ([…], time 28 day): 6.9 mg/dL | K ([…], time 28 day): 4.1 meq/L | LDH ([…], time 28 day): 114 IU/L | Na ([…], time 28 day): 141.8 meq/L | PL ([…], time 28 day): 152 mg/dL | RALB ([…], time 28 day): 3.1 g/dL | TBIL ([…], time 28 day): 0.006 mg/dL | TC ([…], time 28 day): 78.8 mg/dL | TG ([…], time 28 day): 127.4 mg/dL | TP ([…], time 28 day): 5.9 g/dL | gamma-GTP ([…], time 28 day): 2.2 IU/L
